From ChEMBL document CHEMBL1201862, “PubChem BioAssay data set” (2004)
The source made the active and inactive calls.

Experiments:
[1] = target: T1, DNA repair protein RAD52 homolog (Homo sapiens, UniProt P43351); format: functional, biochemical
T1 sequence (P43351 whole entry): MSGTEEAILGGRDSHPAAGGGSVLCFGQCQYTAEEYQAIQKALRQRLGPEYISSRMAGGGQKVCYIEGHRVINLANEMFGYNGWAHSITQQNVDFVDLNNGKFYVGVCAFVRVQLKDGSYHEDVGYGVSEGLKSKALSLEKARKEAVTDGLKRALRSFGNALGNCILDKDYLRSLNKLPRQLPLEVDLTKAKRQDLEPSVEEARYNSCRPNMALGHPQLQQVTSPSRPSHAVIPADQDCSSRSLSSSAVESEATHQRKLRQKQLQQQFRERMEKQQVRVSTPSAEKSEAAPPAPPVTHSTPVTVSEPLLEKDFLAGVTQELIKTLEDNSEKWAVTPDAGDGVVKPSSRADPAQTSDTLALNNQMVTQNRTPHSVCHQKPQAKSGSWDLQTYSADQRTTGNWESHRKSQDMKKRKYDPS

Genome polyprotein = Genome polyprotein (dengue virus type 2, UniProt P29990); assay: flavivirus cap methylation enzyme inhibition – biochemical, confirmation dose response, primary screen (AID 588689); format: functional
Chain of Genome polyprotein (P29990 2492-3391 limits assumed): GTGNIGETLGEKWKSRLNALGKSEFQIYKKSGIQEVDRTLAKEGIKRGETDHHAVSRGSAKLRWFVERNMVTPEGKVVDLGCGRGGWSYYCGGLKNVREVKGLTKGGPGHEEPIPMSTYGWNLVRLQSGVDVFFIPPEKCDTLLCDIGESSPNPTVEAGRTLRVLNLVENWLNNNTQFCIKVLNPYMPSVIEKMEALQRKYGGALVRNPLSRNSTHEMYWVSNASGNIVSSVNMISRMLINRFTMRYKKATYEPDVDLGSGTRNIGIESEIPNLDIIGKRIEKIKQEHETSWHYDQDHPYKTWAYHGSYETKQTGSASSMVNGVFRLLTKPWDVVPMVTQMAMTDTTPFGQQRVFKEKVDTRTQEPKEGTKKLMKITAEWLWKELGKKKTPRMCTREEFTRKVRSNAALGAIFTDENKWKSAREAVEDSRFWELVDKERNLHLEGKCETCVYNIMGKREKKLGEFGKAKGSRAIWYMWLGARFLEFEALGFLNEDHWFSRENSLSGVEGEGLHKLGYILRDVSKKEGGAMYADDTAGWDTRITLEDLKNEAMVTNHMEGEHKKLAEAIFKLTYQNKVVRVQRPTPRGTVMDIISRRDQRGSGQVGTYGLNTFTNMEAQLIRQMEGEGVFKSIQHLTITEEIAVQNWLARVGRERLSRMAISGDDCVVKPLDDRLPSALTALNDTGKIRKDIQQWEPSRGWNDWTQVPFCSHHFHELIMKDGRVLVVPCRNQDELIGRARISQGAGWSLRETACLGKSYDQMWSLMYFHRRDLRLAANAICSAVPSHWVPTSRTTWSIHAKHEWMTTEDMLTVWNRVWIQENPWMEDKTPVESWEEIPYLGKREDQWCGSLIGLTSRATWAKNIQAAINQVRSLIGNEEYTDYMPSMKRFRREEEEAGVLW

[2] = target: T2, Long-chain-fatty-acid--AMP ligase FadD28 (Mycobacterium tuberculosis, UniProt P9WQ59); assay: Fluorescence polarization aasay to screen for inhibitors that compete for the binding of FadD28 to a bisubstrate Measured in Biochemical System Using Plate Reader - 2147-01_Inhibitor_Dose_CherryPick_Activity.; format: functional, Mycobacterium tuberculosis H37Rv
T2 sequence (P9WQ59 whole entry): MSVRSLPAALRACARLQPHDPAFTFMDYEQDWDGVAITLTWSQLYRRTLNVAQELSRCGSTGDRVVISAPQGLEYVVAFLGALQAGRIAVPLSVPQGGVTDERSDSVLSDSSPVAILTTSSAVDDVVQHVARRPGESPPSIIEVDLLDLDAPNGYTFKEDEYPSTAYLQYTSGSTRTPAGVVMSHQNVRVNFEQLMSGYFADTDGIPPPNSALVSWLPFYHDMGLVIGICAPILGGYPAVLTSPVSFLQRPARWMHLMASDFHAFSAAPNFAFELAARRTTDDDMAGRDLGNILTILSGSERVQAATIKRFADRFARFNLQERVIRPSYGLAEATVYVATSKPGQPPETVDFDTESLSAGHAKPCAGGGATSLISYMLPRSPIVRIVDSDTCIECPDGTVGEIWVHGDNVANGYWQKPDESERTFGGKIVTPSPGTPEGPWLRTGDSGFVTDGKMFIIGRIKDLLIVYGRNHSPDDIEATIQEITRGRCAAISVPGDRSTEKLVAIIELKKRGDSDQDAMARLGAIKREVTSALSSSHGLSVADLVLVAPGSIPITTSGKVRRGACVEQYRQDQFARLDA

[3] = target: T3, Corticotropin-releasing factor receptor 2/Corticotropin-releasing factor-binding protein (Homo sapiens, UniProt P24387+Q13324); assay: activators of CRF receptor 2 with binding protein – uHTS hits, confirmation (AID 602473); format: functional; settings: read-out: EC50_Mean
T3 sequence (Q13324 whole entry): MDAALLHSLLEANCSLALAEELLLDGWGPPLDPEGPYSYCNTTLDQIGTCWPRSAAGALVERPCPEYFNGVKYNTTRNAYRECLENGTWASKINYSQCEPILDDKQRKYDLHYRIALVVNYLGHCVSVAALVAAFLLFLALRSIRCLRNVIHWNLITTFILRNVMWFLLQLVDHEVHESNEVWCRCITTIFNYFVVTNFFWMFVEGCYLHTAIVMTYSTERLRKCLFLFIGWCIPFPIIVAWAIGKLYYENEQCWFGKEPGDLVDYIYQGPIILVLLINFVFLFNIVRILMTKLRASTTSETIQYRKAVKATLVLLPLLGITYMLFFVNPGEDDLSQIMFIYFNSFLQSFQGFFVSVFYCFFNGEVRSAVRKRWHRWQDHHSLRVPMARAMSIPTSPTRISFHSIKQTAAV
T3 sequence (P24387 whole entry): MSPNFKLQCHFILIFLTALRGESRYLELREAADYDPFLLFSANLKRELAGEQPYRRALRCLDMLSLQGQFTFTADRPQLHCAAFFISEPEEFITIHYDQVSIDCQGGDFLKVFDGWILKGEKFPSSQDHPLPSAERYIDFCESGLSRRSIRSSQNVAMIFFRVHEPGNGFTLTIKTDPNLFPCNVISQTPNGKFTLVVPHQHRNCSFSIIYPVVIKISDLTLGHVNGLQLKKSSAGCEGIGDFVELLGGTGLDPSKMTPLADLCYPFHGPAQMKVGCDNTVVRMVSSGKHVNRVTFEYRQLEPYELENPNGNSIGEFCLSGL

Protein Wnt-3a = Protein Wnt-3a (Mus musculus, UniProt P27467); assay: antagonism of Wnt3a pathway luciferase reporter – Wnt-LIGHT cells, luminescence, selectivity assay for Gli-SUFU antagonist project, dose response (AID 651570); format: functional; settings: read-out: IC50_Mean;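 note: Wnt-LIGHT reporter cells stimulated with conditioned medium from Wnt3a-producing cells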
Chain of Protein Wnt-3a (P27467 whole entry): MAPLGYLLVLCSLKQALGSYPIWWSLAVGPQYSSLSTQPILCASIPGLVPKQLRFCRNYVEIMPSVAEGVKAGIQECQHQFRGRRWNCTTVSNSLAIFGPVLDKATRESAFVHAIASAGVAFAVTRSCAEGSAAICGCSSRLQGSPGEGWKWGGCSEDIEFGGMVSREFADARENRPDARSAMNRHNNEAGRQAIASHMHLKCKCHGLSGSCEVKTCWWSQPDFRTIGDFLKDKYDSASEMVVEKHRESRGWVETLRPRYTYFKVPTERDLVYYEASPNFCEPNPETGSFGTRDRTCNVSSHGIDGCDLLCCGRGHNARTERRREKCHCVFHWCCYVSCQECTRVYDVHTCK

[4] = NIH-3T3 fibroblast cytotoxicity, dose response, cytotoxicity control, cell-based, fluorescence, Alamar Blue, secondary assay (AID 2327); format: functional;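 note: NIH-3T3 mouse fibroblasts cultured with fluconazole at 8 µg/mL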
[5] = fluconazole-exposed Candida albicans growth modulators – fluorescence, retest, confirmation (AID 2467); format: functional, cell-based
[6] = target: T4, Adenosylmethionine-8-amino-7-oxononanoate aminotransferase (Mycobacterium tuberculosis, UniProt P9WQ81); assay: Mycobacterium tuberculosis BioA enzyme inhibitor Measured in Biochemical System Using Plate Reader - 2163-02_Inhibitor_Dose_CherryPick_Activity.; format: functional, Mycobacterium tuberculosis UT205
T4 sequence (P9WQ81 whole entry): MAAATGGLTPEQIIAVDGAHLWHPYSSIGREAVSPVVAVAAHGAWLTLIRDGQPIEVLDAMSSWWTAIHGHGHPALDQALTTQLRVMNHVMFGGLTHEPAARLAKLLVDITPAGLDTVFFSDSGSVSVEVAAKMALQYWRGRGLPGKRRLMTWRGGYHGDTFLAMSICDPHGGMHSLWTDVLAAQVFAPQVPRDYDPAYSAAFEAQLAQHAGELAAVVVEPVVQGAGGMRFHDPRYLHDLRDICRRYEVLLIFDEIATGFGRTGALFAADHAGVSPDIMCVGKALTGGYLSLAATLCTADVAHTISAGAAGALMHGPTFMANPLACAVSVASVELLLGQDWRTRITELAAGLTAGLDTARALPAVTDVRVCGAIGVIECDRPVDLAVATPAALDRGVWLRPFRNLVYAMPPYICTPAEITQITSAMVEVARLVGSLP

[7] = reduction of Shn3 3'UTR-driven luciferase in osteoblasts – cell-based, Clone20 osteoblasts, firefly luciferase, cherry-picked, dose response (AID 624132); format: functional;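 note: firefly luciferase luminescence from reporter carrying the Shn3 3'UTR in osteoblasts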
[8] = non-specific 3'UTR reporter inhibition in Clone20-Shn3RL – cell-based, Renilla luciferase, cherry-picked, counter-screen for Shn3 inhibitor project, dose response (AID 624133); format: functional
[9] = blockers of HIV-1 envelope-mediated cell-cell fusion – cherry-pick, dose response (AID 652057); format: functional, cell-based
[10] = blockers of HIV-1 ZM109 envelope-driven cell-cell fusion – HeLa effector, CEM target cells, luciferase, cherry-pick, dose response (AID 652058); format: functional, cell-based;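 note: luciferase signal from HIV-1 Env mediated cell-cell fusion of effector and target cells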
[11] = off-target signal loss in HeLa-CEM21 co-culture – HeLa F-luc CTL cells, cherry-picked, counter-screen for HIV-1 Env fusion inhibitor project, dose response (AID 652040); format: functional, cell-based;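 note: potency for signal decrease marking cytotoxic or nonspecific inhibition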
[12] = HIV-1 AD8 envelope cell-cell fusion blockers – cherry-pick, dose response (AID 652062); format: functional, cell-based;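 note: luciferase signal from cell-cell fusion driven by HIV-1 clade B AD8 Env; potency is for inhibitors of fusion seen as a drop in luminescence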
[13] = intracellular Trypanosoma cruzi inhibitors in host cells – cell-based, plate reader, cherry-pick samples, set 3, dose response (AID 651818); format: functional;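 note: compounds incubated with infected cells for about four days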

In the case of CCN(CC)CCN(Cc1cc2cc3c(cc2nc1O)OCCO3)C(S)=NCCCN(C)C, the AC50 [1] is reported as 12.9 µM (active).
In the case of O=C(O)c1[nH]c2ccccc2c1C(c1ccccc1)c1c(C(=O)O)[nH]c2ccccc12, the IC50 (Genome polyprotein) is reported as 16.7 µM (active) and the AC50 [2] is reported as 36.5 µM (active).
In the case of CC(C)Cc1ccc(C(C)C(=O)Nc2cccnc2)cc1 (stereo not given), the EC50 [3] is reported as > 53 µM (inactive) and the IC50 (Protein Wnt-3a) is reported as 5.34 µM (active).
With C[N+]1(CC(=O)OC2CCCCCCCCCCC2)CCCC1 the EC50 [4] was > 150 µM (inconclusive), the EC50 [5] was 1.65 µM (active) and the IC50 (Protein Wnt-3a) was 28 µM (inactive).
For O=C(O)COc1ccccc1-c1nc(-c2ccccc2)c(-c2ccccc2)[nH]1, the AC50 [2] was > 100 µM (inactive).
In the case of O=C(CSc1nc2c(c(=O)n1-c1ccccc1)SCC2)N1CCN(c2ccccc2)CC1, the AC50 [6] is reported as 1.08 µM (active).
For CCC(CC)CN1C(N(C)C)=NC[C@@H]1CC(C)C, the AC50 [7] was 0.717 µM (active), the AC50 [8] was 1.84 µM (active) and the IC50 (Protein Wnt-3a) was 5.72 µM (active).
For N#CC1=C(N)N(c2ccccc2)C(c2ccco2)C1(C#N)C#N (stereo not given), the AC50 [2] was > 100 µM (inactive).
In the case of O=C(CSc1nc2ccccc2c(=O)n1-c1ccccc1)N1CCN(CCO)CC1, the AC50 [6] is reported as 12.3 µM (active).
With C[C@@]12C(=O)N(CC3CCCO3)CC(=O)N1[C@H]1c3cc(Cl)ccc3OC[C@@H]1[C@@H]2c1ccccc1 (stereo not given in full) the AC50 [9] was 1.34 µM (active), the AC50 [10] was 2.64 µM (active) and the AC50 [11] was 2.05 µM (active). The AC50 [12] was 2.52 µM (active).
For COc1cccc(NC(=O)CN(C)C(=O)c2ccc(S(=O)(=O)Nc3ccccc3C)cc2)c1, the AC50 [2] was > 100 µM (inactive).
With C[C@@H]1CN([C@@H](C)CO)C(=O)c2cccc(NC(=O)C3CCCCC3)c2O[C@@H]1CN(C)Cc1ccc(C(=O)Nc2ccccc2N)cc1 the AC50 [13] was 1.33 µM (active).
For Cc1ccc(S(=O)(=O)Nc2ccc3c(c2)CC(=O)N([C@H](C)CO)C[C@@H](C)[C@@H](CN(C)S(=O)(=O)c2cccs2)O3)cc1, the AC50 [13] was 2.5 µM (active).
With CO[C@H]1CN(C)C(=O)c2ccc(NC(C)=O)cc2OC[C@@H](C)N(C(=O)c2ccc(F)cc2)C[C@H]1C the AC50 [6] was 11.5 µM (active).
In the case of C[C@H]1CN([C@@H](C)CO)C(=O)c2cccc(NC(=O)c3ccncc3)c2O[C@H]1CN(C)Cc1ccc(Cl)c(Cl)c1, the AC50 [13] is reported as 0.08 µM (active).
With C[C@H](CO)N1C[C@H](C)[C@H](CN(C)C(=O)Nc2cccc3ccccc23)Oc2c(NC(=O)c3ccncc3)cccc2C1=O the AC50 [13] was 3.57 µM (active).
With COCCNC(=O)C[C@@H]1CC[C@@H]2[C@H](COc3ccc(NC(=O)Nc4cccc(F)c4)cc3C(=O)N2C)O1 the AC50 [6] was 4.17 µM (active).
For CC(=O)Nc1cc(-c2ccc(N3CCN(C)CC3)cc2)cn2c(-c3cccc(C(=O)N(C)C)c3)cnc12, the AC50 [1] was 8.58 µM (active).
For CO[C@H](C(=O)N(C)C[C@@H]1OCc2ccccc2-c2c(n(C)c3ccccc23)C(=O)N([C@H](C)CO)C[C@@H]1C)c1ccccc1, the AC50 [9] was 6.28 µM (active), the AC50 [10] was 10.2 µM (active) and the AC50 [11] was 15.4 µM (active). The AC50 [12] was 6.84 µM (active).
In the case of CCCC[C@H](CN(N=O)[C@@H](Cc1ccccc1)CN(C)N=O)N(CCc1ccccc1)N=O, the AC50 [9] is reported as 3.32 µM (active), the AC50 [10] is reported as 8.46 µM (active) and the AC50 [11] is reported as 6.02 µM (active). The AC50 [12] was 20.6 µM (active).
